# Experimental data taken from patent US20260234150A1, “COMPOUND FOR INHIBITING NLRP3, PREPARATION METHOD, AND USE” (DOVETREE MEDICINES UNUS, INC., priority 2023, published 2026).
# Columns and labels:
# [1] = tested on: IL-1β secretion of THP-1 cells; assay: Effect of NLRP3 inhibitor on IL-1β secretion of THP-1 cells (AlphaLISA); format: cell-based; details: Homo sapiens; PMA, LPS and Nigericin stimulated THP-1 cells, IL-1β in supernatant; read-out: IC50 (nM), THP-1 cells to detect NLRP3 inhibitors
# Experimental: This experiment used the PerkinElmer AlphaLISA_human_IL1β kit (AL220 C/F). The detection buffer was RPMI-1640+10FBS. AlphaLISA Immunoassay Buffer, AlphaLISA Anti-IL1β Acceptor beads, Streptavidin (SA)-coated Donor beads, and Biotinylated Antibody Anti-IL1β were all included in the kit.
# The density of THP1 cells was adjusted to 4×10^5 cells/mL, PMA (final concentration 50 nM) was added, inoculated into 96-well flat-bottom plates at 200 μL/well, and stimulated overnight at 37° C., 5% CO2 (try to <16h). The next day, the supernatant was discarded, and the flat washed twice with DPBS ([…]/time). Then LPS solution (final concentration of 100 ng/ml) was added at 198 μL/well, incubated at 37° C., 5% CO2 for 3h. 1 μL of the corresponding concentration of compounds was added to each well according to the experimental MAP, incubated at 37° C., 5% CO2 for 1 h. 1 μL Nigericin (final concentration of […]) was added to each well, incubated overnight at 5% CO2 (>18h). On the third day, 5 μL of supernatant was taken, diluted 20 times, and the content of IL-Iβ in the supernatant was detected by Human Interleukin 1 beta (IL1β) Kit. Envision was used to read the AlphaLISA test value of Ex=680/[…]. GraphPad Prism 9.5.0 was used to analyze the data, and the IC50 value of the compound for IL-Iβ antagonism was fitted by four-parameter Logistic.
# [2] = Liver microsome metabolic stability, rat; format: in vitro ADME; details: rat liver microsomes, 45 min incubation
# Experimental: Purpose: This experiment investigates the metabolic stability of the compound in liver microsomes of different species such as humans, mice and rats, and the residual content of the test compound after incubation with liver microsomes of different species such as humans, mice and rats.
# Preparation of 500 μM solution of target compound and positive control: 5 μL of each 10 mM stock solution was taken, added to 95 μL acetonitrile, and mixed for 30 s;
# Preparation of 6 mM NADPH solution: 100 mM Stock aliquot liquid was diluted with Mg-Mg —K-Buffer.
# 2.1.1 Liver microsome solution: 18.75 μL of 20 mg/mL HLM, RLM, MLM, DLM, MOLM (final concentration: 0.5 mg/ml) were taken and placed them in each well of a 96-well plate;
# 2.1.2 1.5 μL of 500 μM solution of each compound was added respectively;
# 2.1.3 479.8 μL of phosphate buffer was taken, then added to each compound well, and mixed at 1000 rpm in an oscillating mixer for 10 s.
# 30 μL of the above samples were taken and aliquoted to a new 96-well plates respectively (including NADPH group, n=2, and no NADPH group at 0 and 45 min, n=1), marked as 0, 5, 15, 30 and 45 min; […]
# The slope was calculated based on the LN value of the compound concentration percentage and time as the coordinate axis, and the residual content of the compound after incubation with liver microsomes was calculated based on the slope and formula. […]
smiles,measurement,setting,value
CC(=O)N1CCOC[C@H]1CNc1nc2nc(-c3c(C)cc(C(F)(F)F)cc3O)ccc2o1 [Compound 111],IC50,[1],< 50 nM
same,"LMS (r)(% rem, 45 min)",[2],82.45 % rem
